Assay results taken from patent publication US8969249B2, “Synthesis and biological activity of bicyclic ABA analogs” (National Research Council of Canada, priority 2004, dated 2015).

What was measured:
[1] = tested on: suspension-cultured cells of maize (Black Mexican Sweet); assay: growth inhibition assay using suspension-cultured corn cells; format: cell-based; conditions: for inhibition of growth of suspension-cultured maize cells: dose-dependent over concentration range 0.1-10.0 μM
Source text: In yet another embodiment, a process for inhibiting plant cell growth using the bicyclic ABA and analogs of the present invention is described. The ability of bicyclic ABA and analogs of the present invention to inhibit plant cell growth may be assayed with a growth inhibition assay. In one assay, suspension-cultured corn cells are used in a well characterized experimental system that has been useful for comparing the biological activity and metabolism of ABA and ABA analogs (6).
The growth inhibition assay using suspension-cultured corn cells is a well characterized experimental system that has been very useful for comparing the biological activity and metabolism of ABA and ABA analogs (6).
Maize cell cultures were treated as described by Balsevich et. al. (6). The cultures were incubated on a rotary shaker for 4 days, and the cells were separated from the medium by vacuum filtration and weighed immediately. The effect of ABA and bicyclic ABA on cell growth was determined at various concentrations (0-10 μM) by calculating the percentage increase in fresh weight [(final weight×100/initial weight)−100)]. Measurements were performed in triplicate and average values were normalized to a control (untreated) value of 100%.

[2] = tested on: Arabidopsis thaliana (Columbia wild type) seeds; assay: seed germination inhibition assay; format: in vivo; conditions: for germination index: lowest concentration of 0.33 μM
Description: (§1) In yet an additional embodiment, bicyclic ABA and analogs of the present invention may be used in a process for inhibiting seed germination. In one embodiment, bicyclic ABA is used in a germination assay of Arabidopsis thaliana (Columbia wild type) seeds over a wide range of concentrations (0.33-33 μM). Similar treatments were performed for ABA [1] (both enantiomers) to allow for a direct comparison between ABA and bicyclic ABA (both enantiomers). The results are expressed in terms of germination indices, which summarize the rate and extent of germination over the time of the experiment at a given concentration. […] At the lowest concentration of 0.33 μM, the germination index for (+)-ABA (1) was almost 0.4, compared with less than 0.1 in the case of (+) bicyclic ABA [8].
as §1, with “Bicyclic” for “In yet an additional embodiment, bicyclic”, “produced using the process” for “and analogs”, “was also studied” for “may be used in a process for inhibiting seed germination. In one embodiment, bicyclic ABA is used”, “μM) (FIG. 7).” for “μM).”, “[1]” for “(1)”, “[8]. […] It was only active at concentrations of ≧1 μM.” for “[8].”
Arabidopsis thaliana (Columbia wild type) seed germination inhibition studies were performed as described by Cutler et. al. (23). The treatments were performed in duplicate with 50 seeds per plate and incubated at 24° C. with 16 hr days and 8 hr nights for the duration of the test (7 days).

Compound	inhibition of growth of suspension-cultured maize cells [1]	germination index ([2]; 7-day test)	inhibitory activity (cell growth) relative to (+)-ABA ([1]; BMS maize suspension cells, 4 days, FIG. 6)	germination inhibition compared with comparator (in words) ([2]; (+)-[8] versus (+) ABA, (−)-[8] versus (+)-[8])	inhibition of seed germination (in words) ([2]; all concentrations (0.33-33 μM), 7-day test period)	concentrations at which active/effective in inhibiting germination ([2]; tested 0.33-33 μM, 7-day test)
CC1=CC(=O)CC(C)(C)C1(O)/C=C/C(C)=C\C(=O)O (single isomer, unassigned; (+)) [(+)-ABA, abscisic acid, reference compound]	inhibited the growth	~0.4	–	–	–	–
CC(=C/C(=O)O)/C=C/[C@@]1(O)c2ccccc2C(=O)CC1(C)C [(+)-[8], (2Z,4E)-5-((1S)-1-Hydroxy-2,2-dimethyl-4-oxo-1,2,3,4-tetrahydro-naphthalen-1-yl)-3-methyl-penta-2,4-dienoic acid]	inhibited the growth	less than 0.1	~10 fold	more effective germination inhibitor than (+) ABA	highly effective	–
abscisic acid [(−) enantiomer of ABA [1], reference compound]	–	–	–	–	–	≥ 3.33 µM
